Experimental data from PMC5889558, “The inhibition of human lung fibroblast proliferation and differentiation by Gs-coupled receptors is not predicted by the magnitude of cAMP response” (Respiratory Research, 2018).

How the values were obtained:
Type in all cases: cell-based
[1] = tested on: human lung fibroblasts (HLF); experiment: cAMP accumulation in HLF (HitHunter or AlphaScreen); details: for EC50 / Emax: Homo sapiens, Fibroblast; for EC50: read-out: cAMP pEC50 (converted); for Emax: read-out: cAMP Emax (% max)
Protocol: HLF were grown to confluency in 96-well white ViewPlates, before incubation with a range of agonist concentrations, or vehicle, for 2 h at room temperature in HBSS with 5 mM HEPES, 0.1% w/v HSA, and 5 μM rolipram. […] Rolipram was excluded when measuring cAMP levels in response to PDE inhibitors. cAMP levels were measured using either HitHunter cAMP assay or AlphaScreen competition assay following manufacturer protocol, and were assessed on either a BMG LABTEK ClarioStar or a Packard EnVision plate reader. cAMP concentrations in each well were determined using a standard curve. To account for the inter-assay variation in levels of cAMP produced in each experiment, data were normalized to the maximal forskolin response.

[2] = tested on: human lung fibroblasts (HLF); experiment: HLF proliferation by BrdU incorporation (DELFIA), driven by FBS or PDGF; details: for EC50 / Emax: Homo sapiens, Fibroblast, inhibition of BrdU incorporation, NC = not calculated due to incomplete curve; for EC50: mean ± SEM
Protocol: Proliferation of HLF was measured by incorporation of bromodeoxyuridine (BrdU). HLF were seeded overnight at 4000 cells/well in 96-well black ViewPlates, before being starved for 24 h in culture medium devoid of FBS. Proliferation was measured after incubation with a range of concentrations of FBS or PDGF, in DMEM supplemented with 0.1% w/v HSA, for 24 h.
For anti-remodelling assays using BrdU incorporation, cells were incubated for 24 h with a range of concentrations of test compounds in the presence of near maximal concentrations of FBS or PDGF in DMEM supplemented with 0.1% w/v HSA. Proliferation was assessed using the DELFIA BrdU incorporation assay kit following manufacturer protocol. Fluorescence was measured using a Packard EnVision plate reader. To account for the inter-assay variation in levels of proliferation in each experiment, data were normalized to the PDGF or FBS response.

[3] = tested on: human lung fibroblasts (HLF); experiment: Cell viability assay, caspase-3/7 as marker of apoptosis; details: 24 h
Protocol: Cell viability was measured using caspase-3/7 expression as a marker of apoptosis after treatment for 24 h with test compounds. HLF were seeded overnight at 6,000 cells/well in 96-well black ViewPlates, before being starved for 24 hours in culture medium devoid of FBS. Cells were incubated for 24 hours in the presence of test compounds at the top concentrations used in the proliferation assays, or in the presence of 100 nM staurosporine to induce apoptosis.
The presence of the apoptotic marker caspase-3/7 was detected by incubating cells with 8 μM CellEvent™ Caspase-3/7 Red Detection Reagent in dPBS with 5 % FBS, for 30 minutes at 37°C. […] Images were analyzed using a multi wavelength cell scoring algorithm within the MetaXpress 5.3 software, which measures cell number using stained nuclei, and percent of these cells positive for caspase-3/7 from Cy5 readouts. To account for the inter-assay variation in levels of caspase 3/7 detected in each experiment, data were normalized to the staurosporine response.
Statistical significance across treatment groups was determined by using the one-way ANOVA with Dunnett’s multiple-comparison post hoc test.

[4] = HLF, 2 h, room temperature, 5 μM rolipram (excluded for PDE inhibitors), mean ± SEM, at least 3 experiments, NC = not calculated due to incomplete curve
[5] = HLF, 2 h, percentage of the maximal forskolin response, mean ± SEM, NC = not calculated due to incomplete curve
[6] = 24 h, EC80 concentration of serum, read-out: Proliferation vs serum pEC50 (converted)
[7] = 24 h, EC80 serum, percentage of maximal proliferation observed with serum, read-out: Proliferation vs serum Emax (% max)
[8] = HLF, 1:10 dilution of top conc 10 μM
[9] = HLF, top conc 10 μM, mean ± SEM, n=3
[10] = 24 h, EC80 PDGF, percentage of maximal proliferation observed with PDGF, read-out: Proliferation vs PDGF Emax (% max)
[11] = 24 h, EC80 concentration of PDGF, read-out: Proliferation vs PDGF pEC50 (converted)

SMILES	EC50 [1, 4] [nM]	Emax [1, 5] [%]	EC50 [2, 6] [nM]	Emax [2, 7] [%]	Emax [2, 10] [%]	EC50 [2, 11] [nM]	also measured
CCCC1([C@H](O)C/C=C/[C@H]2[C@H](O)CC(=O)[C@@H]2CCCCCCC(=O)OC)CCC1 [Butaprost]	1550	8.76 ± 3.25	64.6	29.1 ± 7.29			maximal level of inhibition of serum-driven proliferation ([2]; BrdU, 24 h, near maximal FBS): 29%; % cells positive for caspase-3/7, 1:10 dilution [3, 8]: 0.90 ± 0.39%; % cells positive for caspase-3/7, Top conc [3, 9]: 0.80 ± 0.29%
CN[C@@H]1C[C@H]2O[C@@](C)([C@@H]1OC)n1c3ccccc3c3c4c(c5c6ccccc6n2c5c31)C(=O)NC4 [Staurosporine]							% cells positive for caspase-3/7, Top conc ([3]; HLF, top conc 100 nM): 54.8 ± 13.6%; caspase-3/7 expression / apoptosis (in words) ([3]; HLF, one-way ANOVA with Dunnett's test): statistically significant cell apoptosis
CCc1cc2c(cc1CC)CC(NC[C@H](O)c1ccc(O)c3[nH]c(=O)ccc13)C2 [Indacaterol]	2.63	83.3 ± 4.47	11	47.9 ± 1.58	90.3 ± 5.25	1.45	maximal cAMP response ([1]; HLF, % of the forskolin response): 80%; % cells positive for caspase-3/7, 1:10 dilution ([3]; HLF, 1:10 dilution of top conc 1 μM): 0.62 ± 0.15%; % cells positive for caspase-3/7, Top conc ([3]; HLF, top conc 1 μM): 0.62 ± 0.01%
CCCCC(C)(O)C/C=C/[C@H]1[C@H](O)CC(=O)[C@@H]1CCCCCCC(=O)OC (mixture of isomers) [Misoprostol]	107	52.4 ± 6.23	182	34.7 ± 0.71	94.1 ± 1.59	741	% cells positive for caspase-3/7, 1:10 dilution ([3]; human, 1 μM): 0.55 ± 0.04%; % cells positive for caspase-3/7, Top conc ([3]; human, 10 μM): 0.54 ± 0.18%
CC(C)(C)NCC(O)c1ccc(O)c(CO)c1 (stereo not drawn) [Salbutamol]	43.7	68.9 ± 1.4	91.2	32.4 ± 5.84	69.2 ± 5.53	10.5	% cells positive for caspase-3/7, 1:10 dilution ([3]; human, 1 μM): 0.53 ± 0.12%; % cells positive for caspase-3/7, Top conc ([3]; human, 10 μM): 0.46 ± 0.09%
CC#CCC(C)[C@H](O)/C=C/[C@@H]1[C@H]2c3cccc(CCCC(=O)O)c3O[C@H]2C[C@H]1O (mixture of isomers) [Beraprost]	105	107 ± 8.99					
COc1ccc(CC(C)NCC(O)c2ccc(O)c(NC=O)c2)cc1 (stereo not drawn) [Formoterol]			0.263			0.832	EC50 ([1]; 2 h): 0.417 nM; % cells positive for caspase-3/7, 1:10 dilution ([3]; HLF, 1:10 dilution of top conc 100 nM): 0.88 ± 0.48%; % cells positive for caspase-3/7, Top conc ([3]; HLF, top conc 100 nM): 0.67 ± 0.22%
CCCCC[C@H](O)/C=C/[C@H]1[C@H](O)CC(=O)[C@@H]1C/C=C\CCCC(=O)O [PGE2, prostaglandin E2]	45.7	85.5 ± 8.64	91.2	43.1 ± 6.14	71 ± 3.86	2.51	% cells positive for caspase-3/7, 1:10 dilution [3, 8]: 0.53 ± 0.04%; % cells positive for caspase-3/7, Top conc [3, 9]: 0.68 ± 0.29%
CC#CCC(C)[C@H](O)/C=C/[C@@H]1[C@H]2C/C(=C/CCCC(=O)O)C[C@H]2C[C@H]1O (stereo partly drawn) [Iloprost]	77.6	99.5 ± 7.22					% cells positive for caspase-3/7, 1:10 dilution ([3]; human, 0.3 μM): 1.15 ± 0.29%; % cells positive for caspase-3/7, Top conc ([3]; human, 3 μM): 0.88 ± 0.08%
O=C(O)COc1cccc(-c2ocnc2-c2nc(-c3ccccc3)c(-c3ccccc3)o2)c1 [BMY-45778]							cAMP pEC50 [1, 4]: 7.25 ± 0.09; cAMP Emax (% max) [1, 5]: 50.0 ± 4.59 % max
CCNC(=O)[C@H]1O[C@@H](n2cnc3c(N)nc(NCCc4ccc(CCC(=O)O)cc4)nc32)[C@H](O)[C@@H]1O [CGS-21680]							cAMP response (in words) ([1]; HLF, acute cAMP accumulation): no detectable cAMP response
O=C(NOC[C@H](O)CO)c1ccc(F)c(F)c1Nc1ccc(I)cc1F [PD0325901]							inhibition of PDGF-mediated proliferation (in words) ([2]; 3 ng/mL PDGF): blocked PDGF-mediated proliferation of HLF
